Assay [1] addresses T1, capture de (³H)dopamine par les synaptosomes striataux de rat (Rattus norvegicus, UniProt P23977).
T1 construct: Les culots résultants P2 contenant les synaptosomes bruts sont ensuite utilisés sans purification supplémentaire; from tissue; host or cells: Wistar rat striatum, crude synaptosomes (P2 pellet)
Nature of the assay: biochemical. The procedure:
Ce test est pratiqué selon la méthode utilisée par Vignon et Lazdunski en opérant de la façon suivante. Des rats Wistar pesant 200-250g sont tués par dislocation cervicale. Leurs cerveaux sont rapidement prélevés et les striata sont dissé-qués sur la glace. Les striata sont ensuite homogéné-isés (10 allers-retours) avec un homogénéisant Potter dans 50 volumes de tampon Tris HCl 10 mM à pH 7,4 contenant 0,32 M de sucrose. L'homogénat est ensuite centrifugé à 1000g pendant 10min à 4°C, puis le surnageant obtenu est recentrifugé à 10000g pendant 20min à 4°C. Les culots résultants P2 contenant les synaptosomes bruts sont ensuite utilisés sans purification supplémentaire.
On ajoute alors de la dopamine tritiée ((³H)DA, Amersham) à une concentration finale de 5 nM pendant 5 min à 30°C, et on interrompt sa capture par filtration de 150 µl du milieu d'incubation sur des filtres en fibres de verre GF/B (Whatman). La radioactivité retenue par les filtres est mesurée dans un compteur à scintillation liquide (LKB)avec 3 ml d'ACS (Amersham) comme scintillant. La capture non spécifique est mesurée à 4°C dans des incubations parallèles : elle est ensuite sous-traite de la capture totale mesurée à 30°C.
Les composés à tester sont solubilisés au départ dans de l'eau à une concentration de 1mM et les autres concentrations sont obtenues par des dilutions successives de cette solution mère dans l'eau.

Assay [2] concerns the target T2, complexe de recapture de la dopamine (Rattus norvegicus, UniProt P23977).
T2 construct: expériences de compétition sur les membranes de striatum préparées comme ci-dessus; from tissue; host or cells: rat striatal membranes
Nature of the assay: biochemical. The class given is binding. Particulars: for IC50: read-out: [3H] BTCP IC50. How it is done: Exemple 35 : Affinité des composés pour les sites de liaison de la (³H)BTCP sur les membranes striatales de cerveaux de rats.
Les striata de cerveaux de rats rapidement disséqués dans la glace sont homogénéisés avec un ultra turax pendant 30 s (position 6) dans 50 volumes d'une solution de sucrose 0,32 M tamponnée par du Tris-HCl 10 mM à pH = 7,4. L'homogénat est centrifugé à 4°C à 1000g pendant 10 mln, puis le surnageant obtenu est centrifugé à 40000 g à 4°C pendant 30 min et les culots obtenus sont repris dans 1 ml de tampon par striatum.
L'affinité des composés pour le complexe de recapture de la dopamine est déterminée par des expériences de compétition sur les membranes de striatum préparées comme ci-dessus. Le ligand radioactif utilisé est la (³H)BTCP (Service des Molécules Marquées du CEA, Saclay France) à 55Ci/mmol.
Après 90 min à 4°C, 3 aliquots de 250 µl sont filtrés sous vide sur des filtres de fibre de verre GF/B (Whatman). La liaison non spécifique est obtenue dans des expériences parallè-les réalisées en présence de 10 µM de BTCP non marquée. Elle est soustraite de la liaison totale pour obtenir la liaison spécifique.

The subject of assay [3] is fixation de la (³H)BTCP dans le striatum de souris. Nature of the assay: Inhibition of in vivo (3H)BTCP binding in mouse striatum (Example 40). To be noted: mice, compound s.c. 60 min before i.v. (3H)BTCP, sacrifice 30 min later. The procedure: Exemple 40 : Etude de l'inhibition de la fixation "in vivo" de (³H)BTCP chez la souris.
Pour cette étude, on utilise des souris Swiss mâles pesant 20 à 25g. Les souris sont réparties par groupes et alimentées avec de la nourriture standard de laboratoire et de l'eau à volonté, en réalisant des cycles de lumière artificielle de 12h consécutives à partir de 7h du matin. Les expériences sont effectuées entre 10h et 18h. Les mesures de la fixation "in vivo" de la (³H)BTCP sont effectuées comme il a été décrit par Maurice et al, 1989, de la façon suivante.
On injecte aux souris par voie sous-cutanée le composé à tester dans 100µl de solution physiologique pour les composés n^o 4 et n^o 16 et dans 100µl d'un mélange 1:1 en volume de solution physiologique et de DMSO pour le composé n^o 26. 60 min après cette injection on leur injecte dans une veine de la queue (³H)BTCP à une dose de 5µCi dans 100µl d'un mélange de solution physiologique et d'éthanol à 5%. 30min après cette injection, on sacrifie les souris. Les striata de cerveaux sont rapidement disséqués et homogénéisés avec un ultra turrax (IKA Verk) réglage maximum pendant 20s dans 80 volumes d'un tampon Na₂HPO₄, HCl 50mM, pH=7,4 à 4°C. Deux aliquots de […] sont filtrées sous pression réduite sur des filtres GF/B (Whatman) prétraités par de la polyéthylène imine à 0,5% (Aldrich). On rince ensuite les filtres deux fois avec 5ml d'un tampon NaCl 50mM, tris-HCl 10mM, pH=7,4 à 4°C. La radioactivité fixée qui reste sur les filtres, et la radioactivité totale, obtenue à partir des deux aliquots de 200µl d'homogénats sont mesurées dans des flacons de 6ml contenant 3,5ml de ACS (Amersham) avec un spectrophotomètre à scintillation liquide Excel 1410 (LKB). La fixation non spécifique est définie comme la radioactivité présente dans chaque région après prétraitement des animaux avec de la BTCP (40mg/kg dans 100µl de solution saline), injectée par voie sous-cutanée, 60min avant l'injection de (³H)BTCP. Les résultats sont exprimés sous la forme des rapports radioactivité fixée / radioactivité libre (B/F) dans lesquels le taux de (³H)BTCP libre est estimé en soustrayant la radioactivité fixée de la radioactivité totale.

Setting [4] is: rat striatal synaptosomes, 5 nM (3H)DA, 5 min at 30°C, read-out: [3H] DA IC50.
The mark [5] stands for this setting: rat striatal membranes, 0,2 nM (3H)BTCP, 90 min at 4°C.
Setting [6] is: ratio of IC50 at the PCP receptor to IC50 at the dopamine reuptake complex.

Where two headings read alike, the source gives them in different places.

T1 sequence (P23977 whole entry): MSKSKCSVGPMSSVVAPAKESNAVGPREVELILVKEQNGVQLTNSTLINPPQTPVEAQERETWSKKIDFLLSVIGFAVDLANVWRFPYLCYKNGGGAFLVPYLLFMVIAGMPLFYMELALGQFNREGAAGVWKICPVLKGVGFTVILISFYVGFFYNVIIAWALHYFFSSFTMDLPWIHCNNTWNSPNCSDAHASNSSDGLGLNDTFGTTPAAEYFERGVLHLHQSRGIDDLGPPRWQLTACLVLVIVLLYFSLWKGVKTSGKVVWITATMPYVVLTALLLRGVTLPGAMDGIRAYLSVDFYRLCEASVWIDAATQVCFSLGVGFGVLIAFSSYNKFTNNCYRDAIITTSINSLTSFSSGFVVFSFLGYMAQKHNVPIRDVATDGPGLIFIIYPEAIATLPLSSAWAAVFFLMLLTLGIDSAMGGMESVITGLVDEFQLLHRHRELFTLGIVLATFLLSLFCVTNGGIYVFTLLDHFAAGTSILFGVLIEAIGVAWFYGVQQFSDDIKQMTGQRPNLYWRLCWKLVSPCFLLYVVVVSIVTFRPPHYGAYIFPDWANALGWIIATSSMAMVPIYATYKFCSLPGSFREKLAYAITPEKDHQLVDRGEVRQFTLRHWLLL
T2 sequence (P23977 whole entry, one chain of several): as the sequence (P23977 whole entry) above

As to `CC1CCCN(C2(c3cc4ccccc4s3)CCCCC2)C1` (stereo not shown) [composé n^o 2, (benzo(b)thiophényl-2)-1 ((méthyl-3 pipéridino)-1)-1 cyclohexane], the concentration for half-maximal inhibition (IC50) in assay [1] (setting [4]) worked out at 9.3 nM; in assay [2] (setting [5]), 13.3 nM. The “Sélectivité IC50[^3H]TCP / IC50[^3H]BTCP” value in assay [2] (setting [6]) was determined as 3910.
On to `C[C@H]1CC[C@](c2cc3ccccc3s2)(N2CCCCC2)CC1` [composé n^o 20, (benzo(b)thiophényl-2)-1-t-méthyl-4-r-(pipéridino-1)-1 cyclohexane], for which the IC50 in assay [1] (setting [4]) amounted to 21.4 nM; in assay [2] (setting [5]), 20.7 nM. The “Sélectivité IC50[^3H]TCP / IC50[^3H]BTCP” value in assay [2] (setting [6]) is 5410.
As for `c1ccc2oc(C3(N4CCCCC4)CCCCC3)cc2c1` [composé n^o 4, (benzo(b)furannyl-2)-1 (pipéridino-1)-1 cyclohexane], the figures for the IC50 in assay [1] (setting [4]) and in assay [2] (setting [5]) were 33.8 nM and 19.1 nM, respectively. The “Sélectivité IC50[^3H]TCP / IC50[^3H]BTCP” value in assay [2] (setting [6]) is given as 2094. For the same molecule, in assay [3], the “ID₅₀ (mg/kg)” value is 7,78 mg/kg.
Regarding `CC1CC(C)CN(C2(c3cc4ccccc4s3)CCCCC2)C1` (stereo not shown) [composé n^o 6, (benzo(b)thiophényl-2)-1 ((diméthyl-3,5 pipéridino)-1)-1 cyclohexane], the IC50 in assay [1] (setting [4]) is 14.9 nM; in assay [2] (setting [5]), 12.7 nM. For the same molecule, in assay [2] (setting [6]), the “Sélectivité IC50[^3H]TCP / IC50[^3H]BTCP” value is listed as >>7874.
`OC1CCN(C2(c3cc4ccccc4s3)CCCCC2)CC1` [composé 26, (benzo(b)thiophényl-2)-1( (ol-4-pipéridino)-1)-1 cyclohexane]: the IC50 in assay [2] (setting [5]) amounted to 15.9 nM. For the same molecule, the “Sélectivité IC50[^3H]TCP / IC50[^3H]BTCP” value in assay [2] (setting [6]) was found to be 2006. Also, the “ID₅₀ (mg/kg)” value in assay [3] is 0,56 mg/kg.
Regarding `c1ccc2sc(C3(N4CCCCC4)CCCCC3)cc2c1` [BTCP, (benzo(b)thiophényl-2)-1 (pipéridino -1) cyclohexane, reference compound], the IC50 in assay [1] turned out to be 13.9 nM; in assay [2], 8.4 nM. Besides, in assay [2] (rat), the “Sélectivité IC50[^3H]TCP / IC50[^3H]BTCP” value is on record as 2380. Moreover, the “ID₅₀ (mg/kg)” value in assay [3] is listed as 4,98 mg/kg.
On to `BrCC1CCCN(C2(c3cc4ccccc4s3)CCCCC2)C1` (stereo not shown) [composé n^o 10, (benzo(b)thiophényl-2)-1 ((bromométhyl-3 pipéridino)-1)-1 cyclohexane], for which the figures for the IC50 in assay [1] (setting [4]) and in assay [2] (setting [5]) were 57.1 nM and 34.5 nM, respectively. Besides, the “Sélectivité IC50[^3H]TCP / IC50[^3H]BTCP” value in assay [2] (setting [6]) is >>2898.
As for `CCCN(CCC)C1(c2cc3ccccc3s2)CCCCC1` [composé no 3, (benzo(b)thiophényl-2)-1 (dipropylamino-1)-1 cyclohexane], the values for the IC50 in assay [1] (setting [4]) and in assay [2] (setting [5]) were 12.9 nM and 7.2 nM, respectively. In assay [2], the “Sélectivité pour le complexe de recapture de la dopamine comparé au récepteur de la PCP, result in words” value is “très bons résultats”. Besides, in assay [2] (setting [6]), the “Sélectivité IC50[^3H]TCP / IC50[^3H]BTCP” value was 58889.
The like results for `C[C@H]1CC[C@@](c2cc3ccccc3s2)(N2CCCCC2)CC1` [composé n^o 21, (benzo(b)thiophényl-2)-1 c-méthyl-4-r-(pipéridino-1)-1 cyclohexane] were, in that order, 9.4 nM, 6.9 nM, “très bons résultats” and >>14493.

In general, IC50 refers to the concentration at which inhibition is half-maximal.
